From PMC4029159 (Journal of medicinal chemistry, 2013)
Several values for one entry are separate records, joined by “and”; a condition that tells them apart may be missing. Equal entries are not always repeated.

Legend:
HDAC1 = HDAC1 (Homo sapiens, UniProt Q13547); test: HDAC inhibition by SAMDI mass spectrometry, HDAC1; type: biochemical
MMP13 = MMP13 (Homo sapiens, UniProt P45452); test: MMP assay; type: biochemical; conditions: 10µM
MMP14 = MMP14 (Homo sapiens, UniProt P50281); test: MMP assay; type: biochemical; conditions: 10µM
MMP7 = target: T1, MMP7 (Homo sapiens, UniProt P09237); test: MMP assay; type: biochemical; conditions: 10µM
T1 sequence (P09237 95-267): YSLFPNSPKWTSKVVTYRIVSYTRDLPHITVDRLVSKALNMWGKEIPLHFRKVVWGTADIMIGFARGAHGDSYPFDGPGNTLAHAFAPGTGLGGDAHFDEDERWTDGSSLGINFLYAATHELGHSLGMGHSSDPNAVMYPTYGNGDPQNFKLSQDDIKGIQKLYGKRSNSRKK

MMP2 = MMP2 (Homo sapiens, UniProt P08253); test: MMP assay; type: biochemical; conditions: 10µM
MMP2, sequence (P08253 110-446 limits assumed): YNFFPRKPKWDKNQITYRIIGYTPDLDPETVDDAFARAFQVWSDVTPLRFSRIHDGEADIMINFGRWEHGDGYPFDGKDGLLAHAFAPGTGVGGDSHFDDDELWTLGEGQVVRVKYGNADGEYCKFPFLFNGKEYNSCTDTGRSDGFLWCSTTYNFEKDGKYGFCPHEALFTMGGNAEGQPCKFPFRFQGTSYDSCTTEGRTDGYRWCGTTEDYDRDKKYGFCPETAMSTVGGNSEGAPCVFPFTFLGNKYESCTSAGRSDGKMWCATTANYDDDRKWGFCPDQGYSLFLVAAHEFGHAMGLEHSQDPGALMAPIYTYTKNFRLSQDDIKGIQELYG

[1] = test system: tubulin acetylation (HDAC6 inhibition) in LNCaP cell line; test: Western blot analysis for tubulin acetylation; type: cell-based; conditions: LNCaP cells, 4 hours, 20 µM and IC50 concentration
MMP1 = target: T2, MMP1 (Homo sapiens, UniProt P03956); test: MMP assay; type: biochemical; conditions: 10µM
T2 sequence (P03956 100-269 limits assumed): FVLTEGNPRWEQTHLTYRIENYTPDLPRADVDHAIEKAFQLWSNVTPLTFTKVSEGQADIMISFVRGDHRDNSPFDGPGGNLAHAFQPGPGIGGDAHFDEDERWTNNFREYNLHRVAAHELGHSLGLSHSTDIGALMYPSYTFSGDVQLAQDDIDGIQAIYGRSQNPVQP

Jurkat J.γ = test: Cell viability assay; type: cell-based
MMP9 = MMP9 (Homo sapiens, UniProt P14780); test: MMP assay; type: biochemical; conditions: 10µM
MMP9, sequence (P14780 107-444 limits assumed): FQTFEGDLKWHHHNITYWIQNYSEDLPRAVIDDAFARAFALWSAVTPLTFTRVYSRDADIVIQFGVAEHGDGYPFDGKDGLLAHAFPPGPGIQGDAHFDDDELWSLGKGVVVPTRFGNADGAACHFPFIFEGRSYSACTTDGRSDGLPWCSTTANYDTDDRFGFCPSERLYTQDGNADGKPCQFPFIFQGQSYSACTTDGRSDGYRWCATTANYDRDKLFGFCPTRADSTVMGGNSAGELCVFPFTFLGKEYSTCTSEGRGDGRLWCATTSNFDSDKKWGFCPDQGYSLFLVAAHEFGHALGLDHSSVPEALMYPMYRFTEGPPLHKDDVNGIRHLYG

MMP3 = MMP3 (Homo sapiens, UniProt P08254); test: MMP assay; type: biochemical; conditions: 10µM
MMP3, sequence (P08254 100-272 limits assumed): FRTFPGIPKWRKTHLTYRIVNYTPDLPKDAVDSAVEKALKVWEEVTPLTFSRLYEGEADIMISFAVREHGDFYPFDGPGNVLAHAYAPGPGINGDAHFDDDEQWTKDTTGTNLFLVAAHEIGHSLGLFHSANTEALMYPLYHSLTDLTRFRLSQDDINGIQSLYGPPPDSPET

DU-145 = test: Cell viability assay; type: cell-based; conditions: for Fold less cytotoxic than 14e, DU145: compared with 14e
Jurkat = test: Cell viability assay; type: cell-based
LNCaP = test: Cell viability assay; type: cell-based
HDAC6 = target: T3, HDAC6 (Homo sapiens, UniProt Q9UBN7); test: HDAC inhibition by SAMDI mass spectrometry, HDAC6; type: biochemical
T3 sequence (Q9UBN7 1-1215): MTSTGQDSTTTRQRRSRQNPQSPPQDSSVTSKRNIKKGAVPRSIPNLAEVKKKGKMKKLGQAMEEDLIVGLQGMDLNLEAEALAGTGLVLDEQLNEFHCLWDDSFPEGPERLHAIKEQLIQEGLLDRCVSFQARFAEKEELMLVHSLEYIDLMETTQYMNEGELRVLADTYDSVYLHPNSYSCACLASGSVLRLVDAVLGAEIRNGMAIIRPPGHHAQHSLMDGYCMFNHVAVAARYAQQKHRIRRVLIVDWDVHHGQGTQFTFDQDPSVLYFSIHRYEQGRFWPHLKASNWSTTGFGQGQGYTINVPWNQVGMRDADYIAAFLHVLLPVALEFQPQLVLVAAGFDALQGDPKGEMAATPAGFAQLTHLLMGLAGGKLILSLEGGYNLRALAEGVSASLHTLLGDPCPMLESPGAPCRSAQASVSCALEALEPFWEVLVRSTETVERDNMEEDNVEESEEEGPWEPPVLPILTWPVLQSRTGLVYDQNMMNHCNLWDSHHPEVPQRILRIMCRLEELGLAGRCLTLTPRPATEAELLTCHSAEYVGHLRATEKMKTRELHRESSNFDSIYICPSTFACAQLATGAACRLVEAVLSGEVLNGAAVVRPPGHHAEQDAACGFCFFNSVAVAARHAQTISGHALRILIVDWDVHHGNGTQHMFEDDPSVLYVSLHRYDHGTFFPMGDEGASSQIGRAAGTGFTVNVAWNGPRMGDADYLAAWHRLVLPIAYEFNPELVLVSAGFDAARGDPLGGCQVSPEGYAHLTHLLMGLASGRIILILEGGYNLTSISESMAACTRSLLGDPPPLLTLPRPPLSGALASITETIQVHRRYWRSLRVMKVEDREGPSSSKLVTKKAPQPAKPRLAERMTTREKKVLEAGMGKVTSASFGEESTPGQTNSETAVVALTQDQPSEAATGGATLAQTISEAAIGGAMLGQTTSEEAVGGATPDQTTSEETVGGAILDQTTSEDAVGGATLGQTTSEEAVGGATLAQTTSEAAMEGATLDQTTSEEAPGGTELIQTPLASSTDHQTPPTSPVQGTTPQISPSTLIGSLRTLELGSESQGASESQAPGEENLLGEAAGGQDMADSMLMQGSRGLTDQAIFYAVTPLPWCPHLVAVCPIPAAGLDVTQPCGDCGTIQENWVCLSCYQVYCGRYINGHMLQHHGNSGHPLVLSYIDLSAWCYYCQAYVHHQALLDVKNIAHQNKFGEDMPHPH

HDAC1, sequence (Q13547 whole entry): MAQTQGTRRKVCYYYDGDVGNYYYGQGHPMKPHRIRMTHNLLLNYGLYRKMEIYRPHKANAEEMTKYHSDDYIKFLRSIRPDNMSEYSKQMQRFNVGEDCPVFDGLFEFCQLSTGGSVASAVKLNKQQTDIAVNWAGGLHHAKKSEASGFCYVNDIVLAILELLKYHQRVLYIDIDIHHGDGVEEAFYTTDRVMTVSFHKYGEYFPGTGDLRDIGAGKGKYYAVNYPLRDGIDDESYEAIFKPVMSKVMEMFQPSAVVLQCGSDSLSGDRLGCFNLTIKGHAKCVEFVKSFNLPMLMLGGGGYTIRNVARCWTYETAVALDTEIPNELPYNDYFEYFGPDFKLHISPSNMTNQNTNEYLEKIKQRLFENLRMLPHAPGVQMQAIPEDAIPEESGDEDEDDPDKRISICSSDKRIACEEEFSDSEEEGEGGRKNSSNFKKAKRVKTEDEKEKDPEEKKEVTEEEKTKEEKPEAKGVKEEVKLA

Row | SMILES | HDAC1 inhibition, in words (HDAC1) | Effect on MMP13 activity (MMP13) | Effect on MMP14 activity (MMP14) | Effect on MMP7 activity (MMP7) | Effect on MMP2 activity (MMP2) | Tubulin acetylation level (Western blot) [1] | Effect on MMP1 activity (MMP1) | Effect on MMP9 activity (MMP9) | Effect on MMP3 activity (MMP3) | Fold less cytotoxic than 14e, DU145 (DU-145) [fold] | Activity against Jurkat Jγ, in words (Jurkat J.γ) | further results
1 | Oc1cccn(CCCCCn2cc(-c3ccccc3)nn2)c1=S [Compound 10d, 1-Phenyltriazolylpentyl-3-hydroxypyridin-2-thione] | inactive | halved | inactive | inactive | inactive | increased tubulin acetylation but to a lesser extent than SAHA | inactive | inactive | inactive |  |  | IC50 (Jurkat J.γ; Homo sapiens, Jurkat, 72 h, read-out: Cellular IC50 Jurkat J.γ, 72 hours, MTS): 1000 nM
2 | Oc1cccn(CCCCCCCn2cc(-c3ccccc3)nn2)c1=S [Compound 10f, 1-Phenyltriazolylheptyl-3-hydroxypyridin-2-thione] |  |  |  |  |  |  |  |  |  | 3 |  | Fold less cytotoxic than 10d, DU145 (DU-145; compared with 10d): 2 fold; Fold less cytotoxic than 14e, wild type Jurkat (Jurkat; relative to 14e): 3 fold; Fold less cytotoxic than 10d, wild type Jurkat (Jurkat; relative to 10d): 3 fold; Fold less cytotoxic than 14e, LNCaP (LNCaP; compared with 14e): 3 fold; Fold less cytotoxic than 10d, LNCaP (LNCaP; compared with 10d): 2 fold
3 | Cc1ccccc1-c1cn(CCCCCn2cccc(O)c2=S)nn1 [Compound 14c, 1-(2-Tolyl)triazolylpentyl-3-hydroxypyridin-2-thione] |  |  |  |  |  |  |  |  |  | 2 |  | 
4 | N#Cc1cccc(-c2cn(CCCCCn3cccc(O)c3=S)nn2)c1 [Compound 14e, 1-(3-Benzonitrile)triazolylpentyl-3-hydroxypyridin-2-thione] | inactive | halved | inactive | inactive | inactive | increased tubulin acetylation but to a lesser extent than SAHA | inactive | inactive | inactive |  |  | Fold more potent than 10d, DU145 (DU-145; relative to 10d): about 2 fold; HDAC6 potency, fold more effective than 14b (HDAC6; relative to 14b): 3 fold; HDAC6 potency, fold more effective than 10d (HDAC6; relative to 10d): 2.5 fold and 3 fold; Fold more potent than 10d, LNCaP (LNCaP; relative to 10d): about 2 fold
5 | O=C(CCCCCCC(=O)Nc1ccccc1)NO [SAHA, suberoylanilide hydroxamic acid] |  |  |  |  |  |  |  |  |  |  | inactive | 
6 | CN1CCc2c(c3ccccc3n2Cc2ccc(C(=O)NO)cc2)C1 [Tubastatin A, reference compound] |  |  |  |  |  |  |  |  |  |  | inactive | Fold less potent than 10d and 14e, LNCaP (LNCaP; relative to 10d and 14e): 2 to 3 fold
